Results published in US6248747A, “5-(heterocyclic alkyl)-6-aryl-dihydropyrimidines” (Synaptic Pharmaceutical Corporation, priority 1999, dated 2001).
Where two headings read alike, the source gives them in different places.

What was measured:
[1] = molecular target: T1, cloned human α1c receptor (Homo sapiens, UniProt P35348); assay: Radioligand binding affinity at cloned human α1c receptor ([3H]prazosin); conditions: LM(tk-) cell membranes, SEM and n
T1 construct: The entire coding region of α1C (1401 bp); expressed in transfected cells; host or cells: LM(tk-) cells, membranes; vector EXJ.RH (derived from pCEXV-3)
T1 sequence (P35348 1-466): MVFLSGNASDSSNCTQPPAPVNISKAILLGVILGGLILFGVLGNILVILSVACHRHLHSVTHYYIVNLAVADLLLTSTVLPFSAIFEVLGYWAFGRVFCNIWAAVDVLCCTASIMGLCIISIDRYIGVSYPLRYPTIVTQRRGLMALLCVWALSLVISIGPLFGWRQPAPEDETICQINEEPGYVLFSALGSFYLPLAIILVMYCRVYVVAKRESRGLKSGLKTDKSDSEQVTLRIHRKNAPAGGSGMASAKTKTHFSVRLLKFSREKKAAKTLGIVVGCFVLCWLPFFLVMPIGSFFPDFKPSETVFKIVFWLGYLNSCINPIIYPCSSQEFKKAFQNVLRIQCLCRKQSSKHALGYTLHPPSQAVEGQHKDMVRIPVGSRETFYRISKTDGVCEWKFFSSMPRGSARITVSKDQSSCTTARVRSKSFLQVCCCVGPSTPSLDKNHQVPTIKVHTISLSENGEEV
Protocol: (§1) The protocols for these experiments are given below.
(§2) These cell lines were prepared by transfecting the cloned cDNA or cloned genomic DNA or constructs containing both genomic DNA and cDNA encoding the human α-adrenergic receptors as follows:
The construct involved ligating three partial overlapping fragments: a 5' 0.6 kb HincII genomic clone, a central 1.8 EcoRI hippocampal cDNA clone, and a 3' 0.6 Kb PstI genomic clone. The hippocampal cDNA fragment overlaps with the 5' and 3' genomic clones so that the HincII and PstI sites at the 5' and 3' ends of the cDNA clone, respectively, were utilized for ligation. This full-length clone was cloned into the KpnI site of the expression vector, using the 5' and 3' KpnI sites of the fragment, derived from vector (i.e., pBluescript) and 3'-untranslated sequences, respectively. Stable cell lines were selected as described above.
Radioligand Binding Assays: Transfected cells from culture flasks were scraped into 5 ml of 5 mM Tris-HCl, 5 mM EDTA, pH 7.5, and lysed by sonication. The cell lysates were centrifuged at 1000 rpm for 5 min at 4° C., and the supernatant was centrifuged at 30,000×g for 20 min at 4° C. The pellet was suspended in 50 mM Tris-HCl, 1 mM MgCl2, and 0.1% ascorbic acid at pH 7.5. […] Nonspecific binding was determined in the presence of 10 μM phentolamine. […]

[2] = molecular target: T2, cloned human α1b receptor (Homo sapiens, UniProt P35368); assay: Radioligand binding affinity at cloned human α1b receptor ([3H]prazosin); conditions: LM(tk-) cell membranes, SEM and n
T2 construct: The entire coding region of α1B (1563 bp); expressed in transfected cells; host or cells: LM(tk-) cells, membranes; vector pCEXV-3
T2 sequence (P35368 1-520): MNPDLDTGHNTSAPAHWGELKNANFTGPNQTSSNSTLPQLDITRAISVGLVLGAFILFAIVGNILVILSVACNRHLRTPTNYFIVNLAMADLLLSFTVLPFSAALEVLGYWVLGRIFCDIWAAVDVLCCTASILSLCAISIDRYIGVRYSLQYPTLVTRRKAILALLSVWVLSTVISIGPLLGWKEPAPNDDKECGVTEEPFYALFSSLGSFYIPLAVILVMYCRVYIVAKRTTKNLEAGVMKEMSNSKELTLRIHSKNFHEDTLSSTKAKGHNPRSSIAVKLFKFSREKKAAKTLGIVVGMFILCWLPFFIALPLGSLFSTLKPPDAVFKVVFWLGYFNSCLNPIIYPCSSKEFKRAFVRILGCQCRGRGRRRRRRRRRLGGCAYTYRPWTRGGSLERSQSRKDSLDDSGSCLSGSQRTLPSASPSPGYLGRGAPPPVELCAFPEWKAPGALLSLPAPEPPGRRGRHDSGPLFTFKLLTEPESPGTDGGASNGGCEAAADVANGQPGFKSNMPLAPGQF
Protocol: as §1, §2
The construct involved ligating the full-length containing EcoRI brainstem cDNA fragment from λ ZapII into the expression vector. Stable cell lines were selected as described above.
(§3) Radioligand Binding Assays: Transfected cells from culture flasks were scraped into 5 ml of 5 mM Tris-HCl, 5 mM EDTA, pH 7.5, and lysed by sonication. The cell lysates were centrifuged at 1000 rpm for 5 min at 4° C., and the supernatant was centrifuged at 30,000×g for 20 min at 4° C. The pellet was suspended in 50 mM Tris-HCl, 1 mM MgCl2, and 0.1% ascorbic acid at pH 7.5. […] Nonspecific binding was determined in the presence of 10 μM phentolamine. The reaction was stopped by filtration through GF/B filters using a cell harvester.

[3] = molecular target: T3, cloned human α1a receptor (Homo sapiens, UniProt P25100); assay: Radioligand binding affinity at cloned human α1a receptor ([3H]prazosin); conditions: LM(tk-) cell membranes, SEM and n
T3 construct: The entire coding region of α1A (1719 bp); expressed in transfected cells; host or cells: LM(tk-) cells, membranes
T3 sequence (P25100 1-572): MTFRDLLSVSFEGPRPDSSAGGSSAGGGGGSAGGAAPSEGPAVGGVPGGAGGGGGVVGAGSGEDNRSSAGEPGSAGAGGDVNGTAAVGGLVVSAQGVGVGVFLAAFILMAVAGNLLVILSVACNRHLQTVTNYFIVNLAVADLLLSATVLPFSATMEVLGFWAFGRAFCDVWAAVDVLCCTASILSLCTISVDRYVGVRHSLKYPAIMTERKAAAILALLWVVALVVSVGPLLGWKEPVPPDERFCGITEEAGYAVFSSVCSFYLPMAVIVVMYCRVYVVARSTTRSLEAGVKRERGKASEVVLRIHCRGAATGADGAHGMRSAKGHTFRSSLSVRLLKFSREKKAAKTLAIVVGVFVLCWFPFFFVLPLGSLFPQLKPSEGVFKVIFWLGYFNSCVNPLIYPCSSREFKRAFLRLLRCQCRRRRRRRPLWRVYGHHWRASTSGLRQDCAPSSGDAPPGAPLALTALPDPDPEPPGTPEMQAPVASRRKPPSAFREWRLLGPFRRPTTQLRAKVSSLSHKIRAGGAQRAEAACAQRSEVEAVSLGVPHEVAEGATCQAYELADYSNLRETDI
Protocol: as §1, §2, §3

[4] = cited from earlier work
[5] = tested on: benign prostatic hyperplasia (BPH); conditions: literature report (phenoxybenzamine: M. Caine et al. 1976); cited from earlier work

SMILES | side effects ([4]; background statement) | usefulness in treating BPH [5] | also measured
CCC1=C(C(N)=O)C(c2ccc(F)c(F)c2)N(C(=O)NCCCN2CCC(C(=O)OC)(c3ccccc3)CC2)C(=O)N1 (single isomer, unassigned; (+)) [Example 20, (+)-5-Carboxamido-6-(3,4-difluorophenyl)-4-ethyl-1-{N-[3-(4-methoxycarbonyl-4-phenylpiperidin-1-yl)propyl]}carboxamido-2-oxo-1,2,3,6-tetrhydropyrimidine] | – | – | hα1c pKi [1]: 9.68; hα1b pKi [2]: 6.59; hα1a pKi [3]: 6.46
Clc1cccc(Cl)c1N=C1NCCN1 [clonidine] | dry mouth and sedation | – | –
CC(COc1ccccc1)N(CCCl)Cc1ccccc1 (stereo not shown) [phenoxybenzamine] | significant side effects such as dizziness and asthenia | useful in relieving the symptoms of BPH | –
COc1cc2nc(N3CCN(C(=O)c4ccco4)CC3)nc(N)c2cc1OC [prazosin] | – | useful for treating BPH | side effects ([4]; in vivo): untoward side effects
COc1cc2nc(N3CCN(C(=O)C4CCCO4)CC3)nc(N)c2cc1OC (stereo not shown) [terazosin] | untoward side effects | useful for treating BPH | –
